IC50 data for 36 molecules are collected here from patent publication US7115658B2 (priority 2002, dated 2006).

The assay deals with T1, Recombinant HCV polymerase (Hepatitis C virus genotype 1b, UniProt P26663).
T1 construct: 2.5 pmoles (0.15 μg) HCV polymerase protein
Put plainly: HCV Polymerase Inhibition Assay. In kind it is biochemical. Conditions: primer/template-directed transcription, 30 minutes at 30° C.; category symbol. The procedure, abridged: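 Recombinant genotype 1b polymerase (2.5 pmol) extended biotin-dG12 on poly(rC)300 with 1 μM GTP plus α-32P-GTP, pH 7.2, 30 min at 30 °C, 1% DMSO final; DE-filter-bound product counted. IC50 fitted from triplicate cpm, refitted with enzyme-concentration (30 nM) tight-binding equation when below 200 nM.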

T1 sequence (P26663 2420-3010): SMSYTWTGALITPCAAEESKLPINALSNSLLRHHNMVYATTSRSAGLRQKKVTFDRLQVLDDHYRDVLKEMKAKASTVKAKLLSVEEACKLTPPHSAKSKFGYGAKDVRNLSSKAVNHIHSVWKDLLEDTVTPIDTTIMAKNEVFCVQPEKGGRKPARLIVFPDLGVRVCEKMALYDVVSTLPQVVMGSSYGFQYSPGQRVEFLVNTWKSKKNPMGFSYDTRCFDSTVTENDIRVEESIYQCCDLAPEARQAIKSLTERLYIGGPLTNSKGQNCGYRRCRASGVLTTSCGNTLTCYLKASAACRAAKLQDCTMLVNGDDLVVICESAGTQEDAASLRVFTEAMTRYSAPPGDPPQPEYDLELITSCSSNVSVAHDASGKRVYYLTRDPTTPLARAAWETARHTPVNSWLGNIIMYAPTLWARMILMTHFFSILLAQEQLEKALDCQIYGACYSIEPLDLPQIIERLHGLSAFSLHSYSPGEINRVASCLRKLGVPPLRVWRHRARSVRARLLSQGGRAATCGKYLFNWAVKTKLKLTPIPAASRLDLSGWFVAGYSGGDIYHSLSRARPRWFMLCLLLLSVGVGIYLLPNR

For the molecule `CCn1nnnc1SC1=C(O)CC(CCc2cc(Cl)c(OC)cc2OC)(C2CCCC2)OC1=O` (stereo not drawn) [Example 106, 6-[2-(5-Chloro-2,4-dimethoxyphenyl)ethyl]-6-cyclopentyl-3-[(1-ethyl-1H-tetraazol-5-yl)thio]-4-hydroxy-5,6-dihydro-2H-pyran-2-one], the IC50 was < 1 µM. `CCCOc1ccc(CCC2(C3CCCC3)CC(=O)CC(=O)O2)cc1F` (stereo not drawn) [Example 72, 6-Cyclopentyl-6-[2-(3-fluoro-4-propoxy-phenyl)-ethyl]-dihydro-pyran-2,4-dione]: the IC50 was in the range of 1 to 10 µM. As for `Cn1cccc(CCC2(C3CCCC3)CC(=O)CC(=O)O2)c1=O` (stereo not drawn) [Example 37, 6-Cyclopentyl-6-[2-(1-methyl-2-oxo-1,2-dihydro-pyridin-3-yl)-ethyl]-dihydro-pyran-2,4-dione], the half-maximal inhibitory concentration (IC50) is > 50 µM.

In the case of `C=CCOCc1ccccc1CCC1(C2CCCC2)CC(=O)CC(=O)O1` (stereo not drawn) [Example 5, 6-[2-(2-Allyloxymethylphenyl)ethyl]-6-cyclopentyldihydropyran-2,4-dione], the IC50 was in the range of 10 to 50 µM.

Take `CCOC(=O)c1c[nH]c(SC2=C(O)CC(CCc3ccc(OC)cc3)(C3CCCC3)OC2=O)n1` (stereo not drawn) [Example 119, Ethyl 2-({6-cyclopentyl-4-hydroxy-6-[2-(4-methoxyphenyl)ethyl]-2-oxo-5,6-dihydro-2H-pyran-3-yl}thio)-1H-imidazole-4-carboxylate]: the IC50 lay within 1 to 10 µM. Under `Cc1cc(SC2=C(O)CC(CCc3ccc(O)cc3)(c3ccccc3)OC2=O)c(C(C)(C)C)cc1CO` (stereo not drawn) [Example 154, 3-(2-tert-butyl-4-hydroxymethyl-5-methyl-phenylsulfanyl)-4-hydroxy-6-[2-(4-hydroxy-phenyl)-ethyl]-6-phenyl-5,6-dihydro-pyran-2-one] stands > 50 µM. In the case of `COc1cc(F)c(CCC2(C3CCCC3)CC(=O)CC(=O)O2)cc1F` (stereo not drawn) [Example 74, 6-Cyclopentyl-6-[2-(2,5-difluoro-4-methoxy-phenyl)-ethyl]-dihydro-pyran-2,4-dione], the IC50 fell in the range of 1 to 10 µM.

In the case of `O=C1CC(=O)OC(CCc2ccc3c(c2)OCCO3)(C2CCCC2)C1` (stereo not drawn) [Example 32, 6-Cyclopentyl-6-[2-(2,3-dihydro-benzo[1,4]dioxin-6-yl)-ethyl]-dihydro-pyran-2,4-dione], the concentration for half-maximal inhibition (IC50) lay within 1 to 10 µM. For `COc1cc(OC)c(CCC2(C3CCCC3)CC(O)=C(Sc3nc4ccc(C(=O)O)cc4[nH]3)C(=O)O2)cc1Cl` (stereo not drawn) [Example 99, 2-({6-[2-(5-chloro-2,4-dimethoxyphenyl)ethyl]-6-cyclopentyl-4-hydroxy-2-oxo-5,6-dihydro-2H-pyran-3-yl}thio)-1H-benzimidazole-5-carboxylic acid], the concentration for half-maximal inhibition (IC50) is < 1 µM. With `COc1ccc(CCC2(C3CCCC3)CC(=O)CC(=O)O2)cc1Cl` (stereo not drawn) [Example 27, 6-[2-(3-Chloro-4-methoxy-phenyl)-ethyl]-6-cyclopentyl-dihydro-pyran-2,4-dione], the IC50 was in the range of 1 to 10 µM. With `O=C1C=C(O)CC(CCc2ccc(OCc3ccc(Cl)c(Cl)c3)cc2)(C2CCCC2)O1` (stereo not drawn) [Example 51, 6-Cyclopentyl-6-(2-{4-[(3,4-dichlorobenzyl)oxy]phenyl}ethyl)-4-hydroxy-5,6-dihydro-2H-pyran-2-one], the IC50 was in the range of 10 to 50 µM.

For the molecule `O=C1CC(=O)OC(CCc2ccc(C(=O)N3CCC(O)CC3)cc2)(C2CCCC2)C1` (stereo not drawn) [Example 67, 6-Cyclopentyl-6-(2-[4-(4-hydroxy-piperidine-1-carbonyl)-phenyl]-ethyl}-dihydro-pyran-2,4-dione], the IC50 was > 50 µM. The same measure for `Cc1cc(SC2=C(O)CC(CCc3ccc(O)cc3)(C3CCCCC3)OC2=O)c(C(C)(C)C)cc1OS(=O)(=O)c1ccccc1` (stereo not drawn) [Example 135, Benzenesulfonic acid 5-tert-butyl-4-{6-cyclohexyl-4-hydroxy-6-[2-(4-hydroxy-phenyl)-ethyl]-2-oxo-5,6-dihydro-2H-pyran-3-ylsulfanyl}-2-methyl-phenyl ester]: 10 to 50 µM. The same measure for `COc1cc(OC)c(CCC2(C3CCCC3)CC(O)=C(Sc3ccc(C(=O)O)cn3)C(=O)O2)cc1Cl` (stereo not drawn) [Example 94, 6-({6-[2-(5-chloro-2,4-dimethoxyphenyl)ethyl]-6-cyclopentyl-4-hydroxy-2-oxo-5,6-dihydro-2H-pyran-3-yl}thio)nicotinic acid]: < 1 µM. In the case of `COC(=O)c1ccc(CCC2(C3CCCC3)CC(=O)CC(=O)O2)cc1` (stereo not drawn) [Example 65, 4-[2-(2-Cyclopentyl-4,6-dioxo-tetrahydro-pyran-2-yl)-ethyl]-benzoic acid methyl ester], the IC50 fell in the range of 1 to 10 µM. For `O=C1CC(=O)OC(CCc2ccc(OCC3CC3)c(F)c2)(C2CCCC2)C1` (stereo not drawn) [Example 57, 6-Cyclopentyl-6-[2-(4-cyclopropylmethoxy-3-fluoro-phenyl)-ethyl]-dihydro-pyran-2,4-dione], the IC50 lay in the range of 1 to 10 µM. For the molecule `O=C1CC(=O)OC(CCc2ccc(F)c(F)c2)(C2CCCC2)C1` (stereo not drawn) [Example 54, 6-Cyclopentyl-6-[2-(3,4-difluoro-phenyl)-ethyl]-dihydro-pyran-2,4-dione], the concentration for half-maximal inhibition (IC50) fell in the range of 10 to 50 µM. Regarding `COc1cc(OC)c(CCC2(C3CCCC3)CC(O)=C(Sc3nnc(O)n3C)C(=O)O2)cc1Cl` (stereo not drawn) [Example 95, 6-[2(5-chloro-2,4-dimethoxyphenyl)ethyl]-6-cyclopentyl-4-hydroxy-3-[(5-hydroxy-4-methyl-4H-1,2,4-triazol-3-yl)thio]-5,6-dihydro-2H-pyran-2-one], the IC50 is < 1 µM. As for `COc1ccc(CCC2(C3CCCC3)CC(O)=C(Sc3nnc(O)n3C)C(=O)O2)cc1` (stereo not drawn) [Example 117, 6-Cyclopentyl-4-hydroxy-3-[(5-hydroxy-4-methyl-4H-1,2,4-triazol-3-yl)thio]-6-[2-(4-methoxyphenyl)ethyl]-5,6-dihydro-2H-pyran-2-one], the 50% inhibitory concentration (IC50) is 1 to 10 µM. As to `CCCCN(C1=C(O)C[C@@](CCc2cccc(O)c2)(C2CCCC2)OC1=O)c1ccccc1` [Example 157, (S)-3-(butyl-phenyl-amino)-6-Cyclopentyl-4-hydroxy-6-[2-(3-hydroxy-phenyl)-ethyl]-5,6-dihydro-pyran-2-one], the half-inhibitory concentration (IC50) fell in the range of 1 to 10 µM. As for `CC(C)(C#N)c1cccc(CCC2(C3CCCC3)CC(=O)CC(=O)O2)c1` (stereo not drawn) [Example 13, 2-{3-[2-(2-Cyclopentyl-4,6-dioxo-tetrahydro-pyran-2-yl)-ethyl]-phenyl}-2-methyl-propionitrile], the IC50 was 1 to 10 µM.

Take `CC1(c2ccc(CCC3(C4CCCC4)CC(=O)CC(=O)O3)cc2)CC(=O)CC(=O)O1` (stereo not drawn) [Example 66]: the half-inhibitory concentration (IC50) is < 1 µM.

Take `CC(C)CCC1(C2CCCC2)CC(O)=CC(=O)O1` (stereo not drawn) [Example 151, 6-Cyclopentyl-4-hydroxy-6-(3-methyl-butyl)-5,6-dihydro-pyran-2-one]: the IC50 was > 50 µM. Consider `CC(C)COc1ccc(CCC2(C3CCCC3)CC(=O)CC(=O)O2)cc1F` (stereo not drawn) [Example 70, 6-Cyclopentyl-6-[2-(3-fluoro-4-isobutoxy-phenyl)-ethyl]-dihydro-pyran-2,4-dione], for which the IC50 is 1 to 10 µM. For `Cc1cc(SC2=C(O)CC(CCC(C)C)(C3CCCC3)OC2=O)c(C(C)(C)C)cc1CO` (stereo not drawn) [Example 144, 3-(2-tert-butyl-4-hydroxymethyl-5-methyl-phenylsulfanyl)-6-cyclopentyl-4-hydroxy-6-(3-methyl-butyl)-5,6-dihydro-pyran-2-one], the IC50 was > 50 µM. Regarding `O=C1CC(=O)OC(CCc2cccc(Cl)c2)(C2CCCC2)C1` (stereo not drawn) [Example 26, 6-[2-(3-Chloro-phenyl)-ethyl]-6-cyclopentyl-dihydro-pyran-2,4-dione], the IC50 is 1 to 10 µM.

In the case of `Cc1cccc(CCC2(C3CCCC3)CC(=O)CC(=O)O2)c1` (stereo not drawn) [Example 36, 6-Cyclopentyl-6-(2-m-tolyl-ethyl)-dihydro-pyran-2,4-dione], the IC50 lay within 10 to 50 µM. Take `O=C1CC(=O)OC(CCc2ccc(C3OCCO3)c(F)c2)(C2CCCC2)C1` (stereo not drawn) [Example 78, 6-Cyclopentyl-6-[2-(4-[1,3]dioxolan-2-yl-3-fluoro-phenyl)-ethyl]-dihydro-pyran-2,4-dione]: the 50% inhibitory concentration (IC50) fell in the range of 1 to 10 µM. Under `CC1(c2ccc(CCC3(C4CCCC4)CC(=O)CC(=O)O3)cc2Cl)OCCO1` (stereo not drawn) [Example 62, 6-{2-[3-Chloro-4-(2-methyl-[1,3]dioxolan-2-yl)-phenyl]-ethyl}-6-cyclopentyl-dihydro-pyran-2,4-dione] stands < 1 µM; under `Cc1cc(SC2=C(O)CC(CCc3ccco3)(C(C)C)OC2=O)c(C(C)(C)C)cc1CO` (stereo not drawn) [Example 134], 1 to 10 µM; under `COc1ccc(CCC2(C3CCCC3)CC(=O)C(Oc3ccc(Cl)cc3)C(=O)O2)c(OC)c1` (stereo not drawn) [Example 164, 3-(4-Chloro-phenoxy)-6-cyclopentyl-6-[2-(2,4-dimethoxy-phenyl)-ethyl]-dihydro-pyran-2,4-dione], 10 to 50 µM. For “6-[2-(3-Chloro-4-isopropoxy-phenyl)-ethyl]-6-cyclopentyl-4-hydroxy-3-(thiazol-2-ylsulfanyl)-5,6-dihydro-pyran-2-one [Example 132]”, the IC50 was < 1 µM. For “6-[2-(3-Chloro-4-isopropoxy-phenyl)-ethyl]-6-cyclopentyl-3-(5,7-dimethyl-[1,2,4]triazolo[1,5-a]pyrimidin-2-ylsulfanyl)-4-hydroxy-5,6-dihydro-pyran-2-one [Example 129]”, the IC50 was < 1 µM. As to `CC(C)Oc1ccc(CCC2(C3CCCC3)CC(=O)CC(=O)O2)cc1` (stereo not drawn) [Example 41, 6-Cyclopentyl-6-[2-(4-isopropoxy-phenyl)-ethyl]-dihydro-pyran-2,4-dione], the 50% inhibitory concentration (IC50) fell in the range of 1 to 10 µM. Take `CC1(c2ccc(CCC3(C4CCCC4)CC(=O)CC(=O)O3)cc2Cl)CC(=O)CC(=O)O1` (stereo not drawn) [Example 82, 6-Cyclopentyl-[6-(2-Chloro-phenyl)-6-methyl-dihydro-pyran-2,4-dione]-dihydro-pyran-2,4-dione]: the concentration for half-maximal inhibition (IC50) was < 1 µM. As to `COc1ccc(CCC2(C3CCCC3)CC(=O)C(C(=O)c3ccccc3)C(=O)O2)c(OC)c1` (stereo not drawn) [Example 175, 3-Benzoyl-6-cyclopentyl-6-[2-(2,4-dimethoxy-phenyl)-ethyl]-dihydro-pyran-2,4-dione], the IC50 lay in the range of 10 to 50 µM.
